The values that follow come from patent publication US10231453B2, “5-substituted imidazole derivatives” (BAYER CROPSCIENCE AKTIENGESELLSCHAFT, priority 2015, dated 2019).

One data set has as its system Uromyces appendiculatus. As to the kind of experiment: In vivo preventive test on Uromyces appendiculatus (bean rust), Examples G and R7. Conditions: 264 h, 500 ppm of active ingredient, bean, preventive spray, evaluated 11 days after inoculation, read-out: efficacy.
On to `N#Cc1cncn1CC(O)(Cc1cccc(Cl)c1Cl)C1CCC1` (stereo not drawn) [Example I-85], for which the pest or weed control at 500 ppm lay within 90 to 100%.

The subject of the next data set is Puccinia recondita. As to the kind of experiment: In vivo preventive test on Puccinia recondita (brown rust on wheat), Examples C and R3. Conditions: Puccinia recondita, 264 h; 500 ppm of active ingredient; wheat, preventive spray, evaluated 11 days after inoculation; read-out: efficacy.
As for `Cc1cccc(CC(O)(Cn2cncc2Cl)C2(Cl)CC2)c1F` (stereo not drawn) [Example I-143], the pest or weed control at 500 ppm lay within 90 to 100%.
Turning to `N#Cc1cncn1CC(O)(Cc1cccc(Cl)c1Cl)C1CCC1` (stereo not drawn) [Example I-85], the pest or weed control at 500 ppm is 90 to 100%.

The next data set relates to Septoria tritici. As to the kind of experiment: In vivo preventive test on Septoria tritici (leaf spot on wheat), Examples E, Q3 and R5. Conditions: Zymoseptoria tritici, 576 h, 500 ppm of active ingredient; wheat, preventive spray, evaluated 24 days after inoculation; read-out: efficacy.
Turning to `Cc1cccc(CC(O)(Cn2cncc2Cl)C2(Cl)CC2)c1F` (stereo not drawn) [Example I-143], the pest or weed control at 500 ppm was 90 to 100%.
On the same count and under the same terms, the same measure for `N#Cc1cncn1CC(O)(Cc1cccc(Cl)c1Cl)C1CCC1` (stereo not drawn) [Example I-85]: 90 to 100%.

Tested on in a further data set: not listed separately
The experiment in a line: Measurement of LogP values by HPLC on reversed phase columns (EEC directive 79/831 Annex V.A8). The format is physicochemical. To be noted: method [a]: LC-UV, acidic range, 0.1% formic acid in water and acetonitrile as eluent; Table 1. As to the method: Measurement of Log P values was performed as outlined above.
Regarding `Cc1cccc(CC(O)(Cn2cncc2Cl)C2(Cl)CC2)c1F` (stereo not drawn) [Example I-143], the chromatographic logP (in general, a lipophilicity value derived from retention on a column) turned out to be 2.35.
Consider `N#Cc1cncn1CC(O)(Cc1cccc(Cl)c1Cl)C1CCC1` (stereo not drawn) [Example I-85], for which the chromatographic logP is 3.31.

Another data set relates to Pyrenophora teres. The experiment in a line: In vivo preventive test on Pyrenophora teres (net blotch on barley), Examples D, Q2 and R4. Conditions: Pyrenophora teres, 336 h, 500 ppm of active ingredient, preventive spray, evaluated 14 days after inoculation, read-out: efficacy.
Turning to `Cc1cccc(CC(O)(Cn2cncc2Cl)C2(Cl)CC2)c1F` (stereo not drawn) [Example I-143], the pest or weed control at 500 ppm is 70 to 79%.
On the same count and under the same terms, the same measure for `N#Cc1cncn1CC(O)(Cc1cccc(Cl)c1Cl)C1CCC1` (stereo not drawn) [Example I-85]: 80 to 89%.

Still in this data set, the particulars now being: Pyrenophora teres, 336 h, Example R4, rate of application 100 ppm, read-out: Efficacy in %.
In the case of `OC(Cc1ccccc1F)(Cn1cnc(Cl)c1)C1(Cl)CC1` (stereo not drawn) [drawing 112, reference compound], the pest or weed control at 100 ppm came out at 0%.
For the compound `N#Cc1cn(CC(O)(Cc2ccccc2F)C2(Cl)CC2)cn1` (stereo not drawn) [drawing 121, reference compound], the pest or weed control at 100 ppm stood at 0%.
On to `N#Cc1cn(CC(O)(Cc2ccccc2Cl)C2(Cl)CC2)cn1` (stereo not drawn) [drawing 108, reference compound], for which the pest or weed control at 100 ppm amounted to 0%.
Same read-out and setting: to `C#Cc1cn(CC(O)(Cc2ccccc2F)C2(Cl)CC2)cn1` (stereo not drawn) [drawing 110, reference compound] belongs 0%.
On to `OC(Cc1ccccc1F)(Cn1ccnc1Cl)C1(Cl)CC1` (stereo not drawn) [drawing 113, reference compound], for which the pest or weed control at 100 ppm worked out at 0%.

Staying with this data set, now noted: Pyrenophora teres, 336 h, Example R4, rate of application 500 ppm, read-out: Efficacy in %.
With `OC(Cc1ccccc1F)(Cn1cnc(Cl)c1)C1(Cl)CC1` (stereo not drawn) [drawing 112, reference compound], the pest or weed control at 500 ppm stood at 0%.
For `N#Cc1cn(CC(O)(Cc2ccccc2F)C2(Cl)CC2)cn1` (stereo not drawn) [drawing 121, reference compound], the pest or weed control at 500 ppm was 0%.
Turning to `N#Cc1cn(CC(O)(Cc2ccccc2Cl)C2(Cl)CC2)cn1` (stereo not drawn) [drawing 108, reference compound], the pest or weed control at 500 ppm was found to be 0%.
On the same count and under the same terms, the same measure for `C#Cc1cn(CC(O)(Cc2ccccc2F)C2(Cl)CC2)cn1` (stereo not drawn) [drawing 110, reference compound]: 0%; for `OC(Cc1ccccc1F)(Cn1ccnc1Cl)C1(Cl)CC1` (stereo not drawn) [drawing 113, reference compound]: 0%.

The test system of another data set is Botrytis cinerea. The experiment in a line: In vivo preventive test on Botrytis cinerea (grey mould) on gherkin, Examples B, Q1 and R2. Conditions: Botrytis cinerea, Example R2, rate of application 100 ppm, read-out: Efficacy in %.
On to `C#Cc1cn(CC(O)(Cc2ccccc2F)C2(Cl)CC2)cn1` (stereo not drawn) [drawing 74, reference compound], for which the pest or weed control at 100 ppm is 0%.
On the same count and under the same terms, to `N#Cc1cn(CC(O)(Cc2ccccc2F)C2(Cl)CC2)cn1` (stereo not drawn) [drawing 85, reference compound] belongs 0%; to `N#Cc1cn(CC(O)(Cc2ccccc2Cl)C2(Cl)CC2)cn1` (stereo not drawn) [drawing 72, reference compound], 0%; to `OC(Cc1ccccc1F)(Cn1cnc(Cl)c1)C1(Cl)CC1` (stereo not drawn) [drawing 76, reference compound], 0%.
Regarding `OC(Cc1ccccc1Cl)(Cn1cnc(Br)c1)C1(Cl)CC1` (stereo not drawn) [drawing 70, reference compound], the pest or weed control at 100 ppm was 5%.
Take `OC(Cc1ccccc1F)(Cn1ccnc1Cl)C1(Cl)CC1` (stereo not drawn) [drawing 77, reference compound]: the pest or weed control at 100 ppm was 0%.

Still in this data set, the particulars now being: Botrytis cinerea, Example R2, rate of application 500 ppm, read-out: Efficacy in %.
As for `C#Cc1cn(CC(O)(Cc2ccccc2F)C2(Cl)CC2)cn1` (stereo not drawn) [drawing 74, reference compound], the pest or weed control at 500 ppm is 0%.
For `N#Cc1cn(CC(O)(Cc2ccccc2F)C2(Cl)CC2)cn1` (stereo not drawn) [drawing 85, reference compound], the pest or weed control at 500 ppm amounted to 0%.
As for `N#Cc1cn(CC(O)(Cc2ccccc2Cl)C2(Cl)CC2)cn1` (stereo not drawn) [drawing 72, reference compound], the pest or weed control at 500 ppm turned out to be 0%.
As to `OC(Cc1ccccc1F)(Cn1cnc(Cl)c1)C1(Cl)CC1` (stereo not drawn) [drawing 76, reference compound], the pest or weed control at 500 ppm came out at 0%.
On the same count and under the same terms, the same measure for `OC(Cc1ccccc1Cl)(Cn1cnc(Br)c1)C1(Cl)CC1` (stereo not drawn) [drawing 70, reference compound]: 0%; for `OC(Cc1ccccc1F)(Cn1ccnc1Cl)C1(Cl)CC1` (stereo not drawn) [drawing 77, reference compound]: 0%.

Staying with this data set, now noted: Example R2, rate of application 100 ppm.
The compound `OC(Cc1ccc(Cl)cc1F)(Cn1cnc(Br)c1)C1(Cl)CC1` (racemic) [drawing 79, reference compound] displayed an Efficacy in % of 0%.
Same read-out and setting: the same measure for `OC(Cc1ccc(Cl)cc1F)(Cn1cnc(Cl)c1)C1(Cl)CC1` (racemic) [drawing 83, reference compound]: 0%.
The same measure, in the same setting: to `N#Cc1cn(CC(O)(Cc2ccc(Cl)cc2F)C2(Cl)CC2)cn1` (racemic) [drawing 81, reference compound] belongs 0%.

The data set is the same for the next values; noted with them: Example R2, rate of application 500 ppm.
`OC(Cc1ccc(Cl)cc1F)(Cn1cnc(Br)c1)C1(Cl)CC1` (racemic) [drawing 79, reference compound]: the Efficacy in % was found to be 19%.
As to `OC(Cc1ccc(Cl)cc1F)(Cn1cnc(Cl)c1)C1(Cl)CC1` (racemic) [drawing 83, reference compound], the Efficacy in % was 0%.
Still for that read-out and setting: to `N#Cc1cn(CC(O)(Cc2ccc(Cl)cc2F)C2(Cl)CC2)cn1` (racemic) [drawing 81, reference compound] belongs 0%.

In another data set the test system is Sphaerotheca fuliginea. The experiment in a line: In vivo preventive test on Sphaerotheca fuliginea (powdery mildew on cucurbits), Examples F and R6. To be noted: Podosphaera fuliginea, 360 h; 500 ppm of active ingredient; gherkin, preventive spray, evaluated 15 days after inoculation; read-out: efficacy.
In the case of `Cc1cccc(CC(O)(Cn2cncc2Cl)C2(Cl)CC2)c1F` (stereo not drawn) [Example I-143], the pest or weed control at 500 ppm was 90 to 100%.
As for `N#Cc1cncn1CC(O)(Cc1cccc(Cl)c1Cl)C1CCC1` (stereo not drawn) [Example I-85], the pest or weed control at 500 ppm is 90 to 100%.
